# Laboratory results as given in patent publication US9598414B2, “Substituted benzo[5,6]azepino[3,2,1-hi]pyrido[4,3-b]indoles and substituted benzo[6,7][1,4]oxazepino[2,3,4-hi]pyrido[4,3-b]indoles for treating CNS disorders” (Daya Drug Discoveries, Inc., priority 2013, dated 2017).
# Legend:
# Serotonin 5-HT1A = biological target: T1, Serotonin 5-HT1A (Homo sapiens, UniProt P08908); assay: Receptor binding, 5-HT1A
# T1 sequence (P08908 1-422): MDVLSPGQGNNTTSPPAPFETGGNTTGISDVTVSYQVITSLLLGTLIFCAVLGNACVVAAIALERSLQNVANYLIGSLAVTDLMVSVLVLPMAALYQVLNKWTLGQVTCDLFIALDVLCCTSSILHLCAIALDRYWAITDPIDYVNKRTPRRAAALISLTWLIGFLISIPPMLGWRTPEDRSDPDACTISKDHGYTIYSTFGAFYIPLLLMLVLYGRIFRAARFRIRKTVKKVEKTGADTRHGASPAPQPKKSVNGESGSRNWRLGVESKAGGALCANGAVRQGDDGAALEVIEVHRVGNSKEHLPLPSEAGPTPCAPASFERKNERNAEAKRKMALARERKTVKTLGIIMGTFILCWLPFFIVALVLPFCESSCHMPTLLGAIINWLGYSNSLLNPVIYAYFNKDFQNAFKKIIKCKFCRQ
# Serotonin 5-HT1B = Serotonin 5-HT1B (Homo sapiens, UniProt P28222); assay: Receptor binding, 5-HT1B
# Serotonin 5-HT1B, sequence (P28222 whole entry): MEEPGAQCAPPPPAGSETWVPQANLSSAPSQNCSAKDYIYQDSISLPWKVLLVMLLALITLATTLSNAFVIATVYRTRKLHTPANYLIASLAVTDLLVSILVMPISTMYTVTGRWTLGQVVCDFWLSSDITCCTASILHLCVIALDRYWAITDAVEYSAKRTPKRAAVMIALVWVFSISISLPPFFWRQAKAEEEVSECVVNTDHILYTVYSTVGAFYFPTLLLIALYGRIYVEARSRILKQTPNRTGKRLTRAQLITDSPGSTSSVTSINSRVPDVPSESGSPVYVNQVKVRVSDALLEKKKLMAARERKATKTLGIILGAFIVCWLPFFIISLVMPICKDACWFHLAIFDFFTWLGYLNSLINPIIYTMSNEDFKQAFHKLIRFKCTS
# Serotonin 5-HT1D = Serotonin 5-HT1D (Homo sapiens, UniProt P28221); assay: Receptor binding, 5-HT1D
# Serotonin 5-HT1D, sequence (P28221 whole entry): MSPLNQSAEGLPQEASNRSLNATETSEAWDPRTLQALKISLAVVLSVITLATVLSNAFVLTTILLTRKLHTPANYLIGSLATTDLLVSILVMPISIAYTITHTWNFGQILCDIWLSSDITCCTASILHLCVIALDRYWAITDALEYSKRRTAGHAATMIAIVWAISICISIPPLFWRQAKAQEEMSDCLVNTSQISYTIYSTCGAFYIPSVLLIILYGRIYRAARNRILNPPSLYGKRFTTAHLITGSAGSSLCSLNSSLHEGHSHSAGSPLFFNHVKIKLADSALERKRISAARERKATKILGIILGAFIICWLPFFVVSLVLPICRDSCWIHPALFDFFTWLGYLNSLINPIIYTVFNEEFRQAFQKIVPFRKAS
# Serotonin 5-HT1E = Serotonin 5-HT1E (Homo sapiens, UniProt P28566); assay: Receptor binding, 5-HT1E
# Serotonin 5-HT2B = Serotonin 5-HT2B (Homo sapiens, UniProt P41595); assay: Receptor binding, 5-HT2B
# Serotonin 5-HT3 = Serotonin 5-HT3 (Homo sapiens, UniProt P46098); assay: Receptor binding, 5-HT3
# Serotonin 5-HT6 = Serotonin 5-HT6 (Homo sapiens, UniProt P50406); assay: Receptor binding, 5-HT6
# Serotonin 5-HT6, sequence (P50406 whole entry): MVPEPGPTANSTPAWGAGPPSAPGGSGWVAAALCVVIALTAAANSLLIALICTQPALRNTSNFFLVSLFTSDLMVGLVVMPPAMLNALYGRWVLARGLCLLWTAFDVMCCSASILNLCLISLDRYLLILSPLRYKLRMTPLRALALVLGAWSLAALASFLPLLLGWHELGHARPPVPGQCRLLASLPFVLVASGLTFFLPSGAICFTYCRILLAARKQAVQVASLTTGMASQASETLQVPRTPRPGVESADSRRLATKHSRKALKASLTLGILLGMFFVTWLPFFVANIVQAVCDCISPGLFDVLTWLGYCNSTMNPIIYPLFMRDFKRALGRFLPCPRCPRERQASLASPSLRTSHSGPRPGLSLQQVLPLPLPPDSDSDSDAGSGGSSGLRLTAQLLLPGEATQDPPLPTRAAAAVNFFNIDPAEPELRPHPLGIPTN
# Serotonin 5-HT7 = Serotonin 5-HT7 (Homo sapiens, UniProt P34969); assay: Receptor binding, 5-HT7
# Serotonin 5-HT7, sequence (P34969 whole entry): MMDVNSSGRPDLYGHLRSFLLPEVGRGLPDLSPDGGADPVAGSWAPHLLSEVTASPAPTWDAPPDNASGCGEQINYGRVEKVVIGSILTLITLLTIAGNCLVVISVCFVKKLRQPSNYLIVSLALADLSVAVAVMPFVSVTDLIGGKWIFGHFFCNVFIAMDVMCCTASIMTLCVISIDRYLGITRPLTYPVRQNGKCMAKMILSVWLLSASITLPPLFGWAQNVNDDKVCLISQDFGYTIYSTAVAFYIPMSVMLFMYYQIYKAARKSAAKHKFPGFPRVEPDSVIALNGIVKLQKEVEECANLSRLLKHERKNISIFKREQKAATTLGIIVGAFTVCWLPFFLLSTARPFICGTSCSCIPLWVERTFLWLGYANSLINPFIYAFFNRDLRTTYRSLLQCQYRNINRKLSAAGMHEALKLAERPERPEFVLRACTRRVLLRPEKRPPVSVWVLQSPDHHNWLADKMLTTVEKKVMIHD
# Dopamine D2 = Dopamine D2 (Homo sapiens, UniProt P14416); assay: Receptor binding, D2
# Dopamine D2, sequence (P14416 whole entry): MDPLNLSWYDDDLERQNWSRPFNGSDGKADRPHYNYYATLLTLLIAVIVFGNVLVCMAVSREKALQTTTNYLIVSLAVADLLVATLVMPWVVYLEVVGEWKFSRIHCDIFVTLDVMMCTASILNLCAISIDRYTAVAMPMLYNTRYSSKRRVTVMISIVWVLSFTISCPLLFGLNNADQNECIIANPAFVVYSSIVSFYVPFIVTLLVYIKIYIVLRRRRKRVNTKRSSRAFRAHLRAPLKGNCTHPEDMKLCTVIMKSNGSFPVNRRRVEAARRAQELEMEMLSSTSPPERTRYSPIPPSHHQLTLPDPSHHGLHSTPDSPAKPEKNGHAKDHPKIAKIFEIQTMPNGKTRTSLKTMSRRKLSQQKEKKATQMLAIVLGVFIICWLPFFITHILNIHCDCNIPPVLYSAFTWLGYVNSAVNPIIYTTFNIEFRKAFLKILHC
# Dopamine D3 = Dopamine D3 (Homo sapiens, UniProt P35462); assay: Receptor binding, D3
# Dopamine D4 = Dopamine D4 (Homo sapiens, UniProt P21917); assay: Receptor binding, D4
# α-Adrenergic α1A = α-Adrenergic α1A (Homo sapiens, UniProt P35348); assay: Receptor binding, α1A
# α-Adrenergic α1A, sequence (P35348 whole entry): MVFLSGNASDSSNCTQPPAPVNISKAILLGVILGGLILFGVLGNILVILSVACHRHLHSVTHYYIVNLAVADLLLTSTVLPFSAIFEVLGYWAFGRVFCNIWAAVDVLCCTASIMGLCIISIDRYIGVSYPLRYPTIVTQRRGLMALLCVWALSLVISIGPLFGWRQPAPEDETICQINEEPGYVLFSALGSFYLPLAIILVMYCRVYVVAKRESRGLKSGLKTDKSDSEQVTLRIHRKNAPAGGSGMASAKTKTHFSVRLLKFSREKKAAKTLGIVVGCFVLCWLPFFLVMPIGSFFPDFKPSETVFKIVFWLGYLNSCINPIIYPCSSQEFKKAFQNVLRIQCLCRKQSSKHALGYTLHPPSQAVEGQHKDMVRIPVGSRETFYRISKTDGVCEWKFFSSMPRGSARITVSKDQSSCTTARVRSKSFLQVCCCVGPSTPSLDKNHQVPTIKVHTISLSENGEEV
# α-Adrenergic α1D = α-Adrenergic α1D (Homo sapiens, UniProt P25100); assay: Receptor binding, α1D
# α-Adrenergic α1D, sequence (P25100 whole entry): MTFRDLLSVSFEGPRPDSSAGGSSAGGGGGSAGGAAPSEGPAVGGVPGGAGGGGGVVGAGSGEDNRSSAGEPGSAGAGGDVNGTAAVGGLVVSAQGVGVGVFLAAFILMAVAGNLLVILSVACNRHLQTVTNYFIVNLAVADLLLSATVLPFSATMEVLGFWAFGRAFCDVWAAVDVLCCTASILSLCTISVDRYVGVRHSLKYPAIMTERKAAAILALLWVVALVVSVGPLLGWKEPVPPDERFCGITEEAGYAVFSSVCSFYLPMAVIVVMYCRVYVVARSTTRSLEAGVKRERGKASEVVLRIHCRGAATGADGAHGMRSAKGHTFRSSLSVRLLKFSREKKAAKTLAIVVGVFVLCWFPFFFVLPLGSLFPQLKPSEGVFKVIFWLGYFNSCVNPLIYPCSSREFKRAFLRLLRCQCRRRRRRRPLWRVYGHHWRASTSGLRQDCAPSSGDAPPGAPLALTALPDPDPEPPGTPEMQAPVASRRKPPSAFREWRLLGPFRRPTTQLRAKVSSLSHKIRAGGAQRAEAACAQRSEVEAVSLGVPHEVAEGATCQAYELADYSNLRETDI
# α-Adrenergic α2B = biological target: T2, α-Adrenergic α2B (Homo sapiens, UniProt P18089); assay: Receptor binding, α2B
# T2 sequence (P18089 1-450): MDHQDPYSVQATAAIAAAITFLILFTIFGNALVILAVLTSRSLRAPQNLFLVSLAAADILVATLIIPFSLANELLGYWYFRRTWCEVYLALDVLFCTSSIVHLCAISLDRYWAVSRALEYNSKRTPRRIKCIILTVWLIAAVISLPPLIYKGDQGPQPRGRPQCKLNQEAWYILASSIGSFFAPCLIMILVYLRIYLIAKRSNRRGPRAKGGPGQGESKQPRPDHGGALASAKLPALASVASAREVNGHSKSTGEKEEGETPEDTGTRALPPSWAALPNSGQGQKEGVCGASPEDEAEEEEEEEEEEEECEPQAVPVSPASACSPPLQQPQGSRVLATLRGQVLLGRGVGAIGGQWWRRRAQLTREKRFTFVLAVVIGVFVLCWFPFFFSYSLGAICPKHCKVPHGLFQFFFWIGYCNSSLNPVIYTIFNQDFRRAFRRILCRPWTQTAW
# β-Adrenergic β1 = β-Adrenergic β1 (Homo sapiens, UniProt P08588); assay: Receptor binding, β1
# Histamine H1 = Histamine H1 (Homo sapiens, UniProt P35367); assay: Receptor binding, H1; settings: H1
# Histamine H1, sequence (P35367 whole entry): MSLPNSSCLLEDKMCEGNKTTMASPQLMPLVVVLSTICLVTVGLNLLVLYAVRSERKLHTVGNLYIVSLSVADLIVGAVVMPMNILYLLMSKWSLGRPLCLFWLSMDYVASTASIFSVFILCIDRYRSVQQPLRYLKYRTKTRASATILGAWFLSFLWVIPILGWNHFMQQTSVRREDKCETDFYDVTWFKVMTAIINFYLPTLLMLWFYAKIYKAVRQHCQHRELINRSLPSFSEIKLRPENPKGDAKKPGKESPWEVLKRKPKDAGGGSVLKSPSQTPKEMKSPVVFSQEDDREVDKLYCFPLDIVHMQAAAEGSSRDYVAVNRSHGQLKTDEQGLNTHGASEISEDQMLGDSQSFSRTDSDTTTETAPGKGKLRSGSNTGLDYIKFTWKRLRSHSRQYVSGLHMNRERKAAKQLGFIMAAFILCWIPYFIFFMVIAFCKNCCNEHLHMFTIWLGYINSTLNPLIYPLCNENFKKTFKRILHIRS
# Histamine H3 = Histamine H3 (Homo sapiens, UniProt Q9Y5N1); assay: Receptor binding, H3
# Histamine H3, sequence (Q9Y5N1 whole entry): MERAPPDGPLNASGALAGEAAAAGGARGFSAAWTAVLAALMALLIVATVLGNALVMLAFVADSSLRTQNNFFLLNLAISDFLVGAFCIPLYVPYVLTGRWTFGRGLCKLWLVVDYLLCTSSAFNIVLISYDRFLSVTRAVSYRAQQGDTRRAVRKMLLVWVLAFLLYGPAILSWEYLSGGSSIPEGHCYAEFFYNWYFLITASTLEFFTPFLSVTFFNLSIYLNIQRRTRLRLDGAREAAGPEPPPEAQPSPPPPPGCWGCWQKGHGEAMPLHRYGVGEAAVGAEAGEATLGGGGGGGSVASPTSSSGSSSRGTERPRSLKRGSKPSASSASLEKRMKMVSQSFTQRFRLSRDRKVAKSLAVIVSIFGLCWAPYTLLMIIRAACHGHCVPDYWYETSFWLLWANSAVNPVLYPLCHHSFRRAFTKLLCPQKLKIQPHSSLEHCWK
# Sigma σ1 = Sigma σ1 (Homo sapiens, UniProt Q99720); assay: Receptor binding, σ1
# Sigma σ2 = Sigma σ2 (Homo sapiens, UniProt Q5BJF2); assay: Receptor binding, σ2
# Sigma σ2, sequence (Q5BJF2 whole entry): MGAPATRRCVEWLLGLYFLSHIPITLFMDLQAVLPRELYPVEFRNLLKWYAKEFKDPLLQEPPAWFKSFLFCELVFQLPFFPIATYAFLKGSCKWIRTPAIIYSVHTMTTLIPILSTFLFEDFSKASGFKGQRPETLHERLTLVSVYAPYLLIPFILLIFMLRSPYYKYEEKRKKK
# Opioid δ = Opioid δ (Homo sapiens, UniProt P41143); assay: Receptor binding, opioid δ
# Opioid κ = Opioid κ (Homo sapiens, UniProt P41145); assay: Receptor binding, opioid κ
# Muscarinic M1 = Muscarinic M1 (Homo sapiens, UniProt P11229); assay: Receptor binding, M1
# Muscarinic M3 = Muscarinic M3 (Homo sapiens, UniProt P20309); assay: Receptor binding, M3
# Muscarinic M3, sequence (P20309 whole entry): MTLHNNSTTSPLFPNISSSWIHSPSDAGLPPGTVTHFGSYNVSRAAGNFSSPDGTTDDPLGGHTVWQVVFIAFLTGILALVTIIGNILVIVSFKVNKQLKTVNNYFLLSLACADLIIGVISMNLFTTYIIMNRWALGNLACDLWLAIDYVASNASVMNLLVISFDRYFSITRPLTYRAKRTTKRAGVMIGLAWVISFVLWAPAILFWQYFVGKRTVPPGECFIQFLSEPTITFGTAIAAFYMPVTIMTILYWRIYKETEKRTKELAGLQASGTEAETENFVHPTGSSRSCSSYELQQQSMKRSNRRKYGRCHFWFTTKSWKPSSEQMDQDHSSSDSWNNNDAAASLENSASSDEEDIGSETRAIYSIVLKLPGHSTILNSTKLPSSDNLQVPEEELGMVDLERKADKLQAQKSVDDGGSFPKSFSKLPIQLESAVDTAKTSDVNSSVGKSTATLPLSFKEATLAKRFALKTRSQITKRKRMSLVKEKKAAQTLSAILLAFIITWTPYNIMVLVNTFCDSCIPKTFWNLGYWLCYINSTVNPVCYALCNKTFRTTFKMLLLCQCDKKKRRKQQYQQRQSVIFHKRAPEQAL
# Serotonin transporter = Serotonin transporter (Homo sapiens, UniProt P31645); assay: Receptor binding, serotonin transporter
# [1] = system: rats with a history of chronic meth self-administration; assay: Reinstatement of meth seeking; format: in vivo; settings: 10 mg/kg i.p. just before reinstatement session (meth priming 1 mg/kg i.p. and cues), FIG. 3
# Protocol: DDD-024 was initially tested for effects on the reinstatement of meth seeking in a small pilot group of rats with a history of chronic meth self-administration. […] Rats received a vehicle (10% DMSO) or DDD-024 (10 mg/kg) injection (i.p.) just before each reinstatement session, which consisted of a meth priming injection (1 mg/kg, i.p.) and presentation of meth-associated cues (tone and light) upon each lever press.
# rats = assay: Forced swim test (depression model); format: in vivo; settings: 10 mg/kg i.p., 1 hour before test, versus imipramine 10 mg/kg, FIG. 5
smiles,measurement,setting,value
CN1CCc2c(c3cccc4c3n2Cc2ccccc2O4)C1 [Compound 13b],Ki,Serotonin 5-HT1A,32 nM
same,"binding, in words",Serotonin 5-HT1A; summary of Table 1,binds strongly
same,Ki,Serotonin 5-HT1B,738 nM
same,Ki,Serotonin 5-HT1D,385 nM
same,"binding, in words",Serotonin 5-HT1D; summary of Table 1,moderate binding
same,Ki,Serotonin 5-HT1E,> 10000 nM
same,Ki,Serotonin 5-HT2B,195 nM
same,Ki,Serotonin 5-HT3,> 10000 nM
same,Ki,Serotonin 5-HT6; 5-HT6,189 nM
same,"binding, in words","Serotonin 5-HT6; 5-HT6, text summary of Table 1",moderate binding
same,Ki,Serotonin 5-HT7; 5-HT7,258 nM
same,"binding, in words","Serotonin 5-HT7; 5-HT7, text summary of Table 1",moderate binding
same,Ki,Dopamine D2,> 10000 nM
same,Ki,Dopamine D3,> 10000 nM
same,Ki,Dopamine D4,> 10000 nM
same,Ki,α-Adrenergic α1A,5860 nM
same,Ki,α-Adrenergic α1D,5030 nM
same,Ki,α-Adrenergic α2B,> 10000 nM
same,Ki,β-Adrenergic β1,> 10000 nM
same,Ki,Histamine H1,733 nM
same,Ki,Histamine H3,> 10000 nM
same,Ki,Sigma σ1,220 nM
same,Ki,Sigma σ2; σ2,1810 nM
same,"binding, in words","Sigma σ2; σ2, text summary of Table 1",moderate binding
same,Ki,Opioid δ,310 nM
same,Ki,Opioid κ,> 10000 nM
same,Ki,Muscarinic M1,> 10000 nM
same,Ki,Muscarinic M3,> 10000 nM
same,Ki,Serotonin transporter,413 nM
same,number of lever presses (meth seeking behavior),[1],significantly reduced
same,"antidepressive activity (immobility, forced swim test)",rats,comparable to imipramine
